The record followed here is US8906908B2, “Hydroxybupropion analogues for treating drug dependence” (priority 2010, dated 2014).

One experiment has as its target T1, α3β4*-nAChR (Homo sapiens, UniProt P30926+P32297).
T1 construct: other: EC80-EC90 carbamylcholine; SH-SY5Y; parentheses = S.E.M. as multiplication/division
The experiment in a line: 86Rb+ efflux nAChR functional assay, SH-SY5Y cells. The format is cell-based. The following applies: EC80-EC90 carbamylcholine; SH-SY5Y; parentheses = S.E.M. as multiplication/division factor; read-out: nAChR inhibition IC50 α3β4±. The text has this:
(§1) Cell Lines and Culture: Human embryonic kidney (HEK-293) cells stably expressing human DAT, NET or SERT were maintained as previously described in Eshleman, A. J.; Carmolli, M.; Cumbay, M.; Martens, C. R.; Neve, K. A.; Janowsky, A., J. Pharmacol. Exp. Ther. 1999, 289, (2), 877-885. Use was made of several human cell lines that naturally or heterologously express specific, functional, human nAChR subtypes. Cells of the TE671/RD line naturally expresses muscle-type nAChR (a1β1γδ- or α1*-nAChR), and SH-SY5Y neuroblastoma cells naturally expresses autonomic α3β4*-nAChRs (containing α3, β4, probably α5, and sometimes β2 subunits). Different clones of SH-EP1 epithelial cell lines have been engineered to heterologously express either α4β2-nAChR, which are thought to be the most abundant, high affinity nicotine-binding nAChR in mammalian brain, or α4β4-nAChR, another possible brain nAChR subtype (SH-EP1-hα4β2 or α4β4 cells, respectively). These cells were maintained as low passage number (1-26 from our frozen stocks) cultures to ensure stable expression of native or heterologously-expressed nAChR as previously described (see Lukas, R. J.; Fryer, J. D.; Eaton, J. B.; L., G. C., Some methods for studies of nicotinic acetylcholine receptor pharmacology, in Nicotinic receptors and the Nervous System, Levine, E. D., Ed. CRC Press: Boca Raton, 2002; pp 3-27, incorporated herein by reference in its entirety). Cells were passaged once weekly by splitting just-confluent cultures 1/300 (TE671/RD), 1/5 (SH-SY5Y), or 1/20 (transfected SH-EP1) in serum-supplemented medium to maintain log-phase growth.
After cells had adhered (generally overnight, but no sooner than 4 h later), the medium was removed and replaced with 250 μL per well of complete medium supplemented with ˜350,000 cpm of ^86Rb^+ (PerkinElmer Life and Analytical Sciences, Boston, Mass.) and counted at 40% efficiency using Cerenkov counting (TriCarb 1900 liquid scintillation analyzer[…]; PerkinElmer Life Sciences).
After at least 4 h and typically overnight, ^86Rb^+ efflux was measured using the “flip-plate” technique. See Lukas, R. J.; Fryer, J. D.; Eaton, J. B.; L., G. C., Some methods for studies of nicotinic acetylcholine receptor pharmacology, in Nicotinic receptors and the Nervous System, Levine, E. D., Ed. CRC Press: Boca Raton, 2002; pp 3-27, incorporated herein by reference in its entirety). Briefly, after aspiration of the bulk of ^86Rb^+ loading medium from each well of the “cell plate,” each well containing cells was rinsed 3× with 2 mL of fresh ^86Rb^+ efflux buffer (130 mM NaCl, 5.4 mM KCl, 2 mM CaCl2, 5 mM glucose, 50 mM HEPES, pH 7.4) to remove extracellular ^86Rb^+. Following removal of residual rinse buffer by aspiration, the flip-plate technique was used again to simultaneously introduce 1.5 mL of fresh efflux buffer containing drugs of choice at indicated final concentrations from a 24-well “efflux/drug plate” into the wells of the cell plate. After a 5 min incubation, the solution was “flipped” back into the efflux/drug plate, and any remaining buffer in the cell plate was removed by aspiration. Cells remaining in the cell plate were lysed and suspended by addition of 1.5 mL of 0.1 M NaOH, 0.1% sodium dodecyl sulfate to each well.
Similarly, the sum of ^86Rb^+ in cell plates and efflux/drug plates also determined the efficiency of ^86Rb^+ loading (the percentage of applied ^86Rb^+ actually loaded into cells).
Specific efflux was then taken as the difference in control samples between total and non-specific ^86Rb^+ efflux. Any intrinsic agonist activity of test drugs was ascertained using samples containing test drug only at different concentrations and was normalized, after subtraction of non-specific efflux, to specific efflux in test drug-free, control samples.

The subject of experiment [1] is Male Institute of Cancer Research (ICR) mice. The experiment in a line: Body temperature, antagonism of nicotine-induced hypothermia. The following applies: pretreatment 15 min before nicotine 2.5 mg/kg s.c., tested 30 min after nicotine. It is filed as in vivo. Here is the method: (§2) Animals: Male Institute of Cancer Research (ICR) mice (weighing 20-25 g) obtained from Harlan (Indianapolis, Ind.) were used throughout the study. Animals were housed in an Association for Assessment and Accreditation of Laboratory Animal Care-approved facility, were placed in groups of six, and had free access to food and water. Studies were approved by the Institutional Animal Care and Use Committee of Virginia Commonwealth University.
Body Temperature: Rectal temperature was measured by a thermistor probe (inserted 24 mm) and digital thermometer (YSI Inc., Yellow Springs, Ohio). Readings were taken just before and 30 min after subcutaneous injection of either saline or 2.5 mg/kg nicotine. The difference in rectal temperature before and after treatment was calculated for each mouse. The ambient temperature of the laboratory varied from 21 to 24° C. from day to day. […] The animals were then tested 30 min after administration of a subcutaneous dose of 2.5 mg/kg nicotine.

For experiment [2], the target named is T2, human DA transporters [(h)DAT] (Homo sapiens, UniProt Q01959).
T2 construct: expressed in transfected cells; host or cells: HEK-293
The experiment in a line: Inhibition of [3H]dopamine uptake into HEK293 cells stably expressing hDAT. It is filed as cell-based.
Source text: as §1
(§3) See, for example, Damaj, M. I.; Carroll, F. I.; Eaton, J. B.; Navarro, H. A.; Blough, B. E.; Mirza, S.; Lukas, R. J.; Martin, B. R., Mol. Pharmacol. 2004, 66, (3), 675-682 and Eshleman, A. J.; Carmolli, M.; Cumbay, M.; Martens, C. R.; Neve, K. A.; Janowsky, A., J. Pharmacol. Exp. Ther. 1999, 289, (2), 877-885, both incorporated by reference herein in their entireties.

In experiment [3] the test system is Male Institute of Cancer Research (ICR) mice. The experiment can be described thus: Tail-flick test, blockade of nicotine-induced antinociception. The format is in vivo. As to conditions: mice, pretreatment 15 min before nicotine 2.5 mg/kg s.c., tested 5 min after nicotine; for ED50: Mus musculus, 5 min, read-out: AD50 Tail-flick.
Source text: as §2
Tail-Flick Test: Antinociception for pain mediated at the spinal level was assessed by the tail-flick method of D'Amour, F. E.; Smith, D. L., J. Pharmacol. Exp. Ther. 1941, 72, 74-79, incorporated herein by reference in its entirety. In brief, mice were lightly restrained while a radiant heat source was shone onto the upper portion of the tail. To minimize tissue damage, a maximum latency of 10 s was imposed. Latency to remove the tail from the heat source was recorded for each animal. […] Antinociceptive response was calculated as the percentage of maximum possible effect (% MPE), where % MPE=[(test control)/(10 control)]×100.

The target in experiment [4] is T3, 5HT transporters [(h)SERT] (Homo sapiens, UniProt P31645).
T3 construct: expressed in transfected cells; host or cells: HEK-293
The experiment can be described thus: Inhibition of [3H]serotonin uptake into HEK293 cells stably expressing hSERT. It is filed as cell-based.
Source text: as §1, §3

The mark [5] stands for this setting: HEK293-hDAT, mean ± standard error of three independent experiments, read-out: monoamine uptake inhibition IC50 [3H]DA.
Where [6] appears, read: HEK293-hSERT, mean ± standard error of three independent experiments, read-out: monoamine uptake inhibition IC50 [3H]5HT.

Molecules are shown by their SMILES. Read-outs that look alike come from different tables or passages of the source.

T1 sequence (P32297 32-505): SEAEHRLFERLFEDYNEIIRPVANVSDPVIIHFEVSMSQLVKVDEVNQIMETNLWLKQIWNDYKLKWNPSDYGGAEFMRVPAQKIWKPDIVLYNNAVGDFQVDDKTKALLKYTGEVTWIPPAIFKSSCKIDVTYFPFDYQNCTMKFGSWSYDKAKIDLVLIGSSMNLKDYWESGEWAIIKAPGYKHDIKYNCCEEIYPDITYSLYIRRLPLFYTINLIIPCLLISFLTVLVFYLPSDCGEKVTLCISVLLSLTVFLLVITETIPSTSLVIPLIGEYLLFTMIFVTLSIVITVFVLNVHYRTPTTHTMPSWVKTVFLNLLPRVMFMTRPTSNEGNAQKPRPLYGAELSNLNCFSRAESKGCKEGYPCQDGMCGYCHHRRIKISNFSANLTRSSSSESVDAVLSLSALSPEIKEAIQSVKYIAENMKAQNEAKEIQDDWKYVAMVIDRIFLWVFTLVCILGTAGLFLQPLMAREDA
T1 sequence (P30926 22-498): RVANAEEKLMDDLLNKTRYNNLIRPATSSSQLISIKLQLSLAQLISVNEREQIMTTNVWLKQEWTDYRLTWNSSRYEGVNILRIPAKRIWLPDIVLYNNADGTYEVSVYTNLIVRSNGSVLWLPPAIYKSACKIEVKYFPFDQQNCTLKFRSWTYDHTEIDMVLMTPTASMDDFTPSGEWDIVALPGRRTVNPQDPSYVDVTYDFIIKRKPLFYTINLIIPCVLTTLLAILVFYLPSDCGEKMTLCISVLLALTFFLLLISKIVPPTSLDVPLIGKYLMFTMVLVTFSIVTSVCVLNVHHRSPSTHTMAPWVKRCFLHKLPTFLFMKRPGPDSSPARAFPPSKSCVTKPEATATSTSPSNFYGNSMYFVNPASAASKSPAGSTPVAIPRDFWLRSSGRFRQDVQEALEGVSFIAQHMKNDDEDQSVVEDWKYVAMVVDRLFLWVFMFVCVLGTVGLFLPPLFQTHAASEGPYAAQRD
T3 sequence (P31645 whole entry): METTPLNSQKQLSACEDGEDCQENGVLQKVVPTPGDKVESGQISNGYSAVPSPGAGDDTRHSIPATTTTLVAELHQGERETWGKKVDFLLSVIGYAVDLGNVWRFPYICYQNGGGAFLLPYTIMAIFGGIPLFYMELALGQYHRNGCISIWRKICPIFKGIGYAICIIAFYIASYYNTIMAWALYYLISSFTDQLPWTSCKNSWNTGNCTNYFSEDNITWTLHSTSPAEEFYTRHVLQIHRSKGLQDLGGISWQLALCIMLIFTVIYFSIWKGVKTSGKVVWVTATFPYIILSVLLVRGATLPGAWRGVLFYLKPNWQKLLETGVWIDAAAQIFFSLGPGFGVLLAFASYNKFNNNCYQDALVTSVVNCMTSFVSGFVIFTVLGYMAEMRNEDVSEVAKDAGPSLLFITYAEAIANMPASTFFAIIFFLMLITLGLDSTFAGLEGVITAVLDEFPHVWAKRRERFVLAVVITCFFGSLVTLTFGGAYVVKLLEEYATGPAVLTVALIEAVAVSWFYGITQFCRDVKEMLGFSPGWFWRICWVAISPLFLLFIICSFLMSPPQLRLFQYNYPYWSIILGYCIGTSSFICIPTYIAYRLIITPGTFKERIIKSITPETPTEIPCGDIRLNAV
T2 sequence (Q01959 whole entry): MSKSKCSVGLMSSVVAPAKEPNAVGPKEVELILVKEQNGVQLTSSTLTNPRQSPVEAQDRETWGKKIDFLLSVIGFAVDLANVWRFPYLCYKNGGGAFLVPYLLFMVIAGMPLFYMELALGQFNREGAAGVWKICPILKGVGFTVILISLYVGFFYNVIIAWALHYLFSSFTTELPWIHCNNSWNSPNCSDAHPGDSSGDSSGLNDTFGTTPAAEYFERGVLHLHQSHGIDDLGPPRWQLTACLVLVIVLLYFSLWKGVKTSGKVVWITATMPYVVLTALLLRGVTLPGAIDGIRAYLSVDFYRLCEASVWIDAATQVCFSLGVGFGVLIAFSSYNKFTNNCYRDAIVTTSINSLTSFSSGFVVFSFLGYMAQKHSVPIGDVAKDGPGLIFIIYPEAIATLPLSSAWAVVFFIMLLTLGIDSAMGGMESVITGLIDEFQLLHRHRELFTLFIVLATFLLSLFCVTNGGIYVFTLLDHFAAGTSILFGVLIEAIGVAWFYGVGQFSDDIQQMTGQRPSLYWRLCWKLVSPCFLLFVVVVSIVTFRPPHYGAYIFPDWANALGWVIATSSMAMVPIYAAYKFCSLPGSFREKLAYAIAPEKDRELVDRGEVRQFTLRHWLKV

With `COc1cccc([C@]2(O)OCC(C)(C)N[C@H]2C)c1` [Compound 4f, (2S,3S)-2-(3-Methoxyphenyl)-3,5,5-trimethylmorpholin-2-ol], the IC50 was 11 µM at α3β4*-nAChR, 16 µM in experiment [2] (setting [5]) and over 10 µM in experiment [4] (setting [6]). Moreover, in experiment [1], the “AD50 Hypothermia” value is “IA (IA: AD50 > 15 mg/kg)”. The ED50 in experiment [3] came out at 5.85 mg/kg.

With `C[C@@H]1N(C)C(C)(C)CO[C@@]1(O)c1cccc(Cl)c1` [Compound 4u, (2S,3S)-2-(3-Chlorophenyl)-3,4,5,5-tetramethylmorpholin-2-ol], the figures for the IC50 (at α3β4*-nAChR; in experiment [2] (setting [5]); in experiment [4] (setting [6])) were 6.5 µM, 3.4 ± 0.6 µM and over 10 µM, respectively. The “AD50 Hypothermia” value in experiment [1] is listed as “IA (IA: AD50 > 15 mg/kg)”. The ED50 in experiment [3] came to 0.016 mg/kg.

For the compound `C[C@@H]1NC(C)(C)CO[C@@]1(O)c1ccc(Cl)cc1` [Compound 4i, (2S,3S)-2-(4-Chlorophenyl)-3,5,5-trimethylmorpholin-2-ol], the IC50 at α3β4*-nAChR was found to be 5.1 µM; in experiment [2] (setting [5]) it was 0.285 µM; in experiment [4] (setting [6]), 4.6 ± 0.9 µM. The “AD50 Hypothermia” value in experiment [1] is recorded as “IA (IA: AD50 > 15 mg/kg)”. Also, the ED50 in experiment [3] was found to be 0.019 mg/kg.

On to `CC1NC(C)(C)COC1(O)c1cc(Cl)cc(Cl)c1` (racemic) [Compound 4p, 2-(3,5-Dichlorophenyl)-3,5,5-trimethylmorpholin-2-ol], for which the “AD50 Hypothermia” value in experiment [1] is given as “IA (IA: AD50 > 15 mg/kg)”. Further, the IC50 in experiment [2] (setting [5]) is 8.25 ± 0.72 µM; in experiment [4] (setting [6]), over 10 µM. The “AD50 Tail-flick” value in experiment [3] was “IA (IA: AD50 > 15 mg/kg)”.

Take `C[C@@H]1NC(C)(C)CO[C@@]1(O)c1cccc([N+](=O)[O-])c1` [Compound 4g, (2S,3S)-2-(3-Nitrophenyl)-3,5,5-trimethylmorpholin-2-ol]: the IC50 at α3β4*-nAChR was 14 µM; in experiment [2] (setting [5]) it was 12 µM; in experiment [4] (setting [6]), over 10 µM. Moreover, in experiment [3], the ED50 came to 4.9 mg/kg.

Consider `COc1ccc([C@]2(O)OCC(C)(C)N[C@H]2C)cc1` [Compound 4k, (2S,3S)-2-(4-Methoxyphenyl)-3,5,5-trimethylmorpholin-2-ol], for which the IC50 was 11 µM on α3β4*-nAChR, over 10 µM in experiment [2] (setting [5]) and over 10 µM in experiment [4]. Moreover, the “AD50 Hypothermia” value in experiment [1] is on record as “IA (IA: AD50 > 15 mg/kg)”. In experiment [3], the ED50 worked out at 0.019 mg/kg.

In the case of `C[C@@H]1NC(C)(C)CO[C@@]1(O)c1ccc(F)cc1` [Compound 4h, (2S,3S)-2-(4-Fluorophenyl)-3,5,5-trimethylmorpholin-2-ol], the IC50 at α3β4*-nAChR was 20 µM; in experiment [2] (setting [5]) it was 4.2 ± 0.7 µM; in experiment [4] (setting [6]) it was over 10 µM. Besides, the ED50 in experiment [3] is 0.012 to 0.013 mg/kg.

As for `Cc1cccc([C@]2(O)OCC(C)(C)N[C@H]2C)c1` [Compound 4e, (2S,3S)-2-(m-Tolyl)-3,5,5-trimethylmorpholin-2-ol], the IC50 at α3β4*-nAChR is 8.6 µM; in experiment [2] (setting [5]), 2.6 ± 0.4 µM; in experiment [4] (setting [6]) it was over 10 µM. The ED50 in experiment [1] (Mus musculus, 0.5 h, read-out: AD50 Hypothermia) was 2.3 to 7 mg/kg; in experiment [3], 0.054 mg/kg.

For the compound `C[C@@H]1N(C)C(C)(C)CO[C@@]1(O)c1ccc(Cl)cc1` [Compound 4v, (2S,3S)-2-(4-Chlorophenyl)-3,4,5,5-tetramethylmorpholin-2-ol], the IC50 at α3β4*-nAChR came out at 4.6 µM; in experiment [2] (setting [5]) it was 2.87 ± 0.82 µM; in experiment [4] (setting [6]), 6.48 ± 1.28 µM. The “AD50 Hypothermia” value in experiment [1] was “IA (IA: AD50 > 15 mg/kg)”. For the same compound, the ED50 in experiment [3] turned out to be 0.32 mg/kg.

Regarding `C[C@@H]1NC(C)(C)CO[C@@]1(O)c1ccccc1` [Compound 4b, (2S,3S)-2-Phenyl-3,5,5-trimethylmorpholin-2-ol], the IC50 at α3β4*-nAChR was 8.9 µM; in experiment [2] (setting [5]), 1.06 ± 0.03 µM; in experiment [4] (setting [6]), over 10 µM. Also, in experiment [1], the “AD50 Hypothermia” value is “IA (IA: AD50 > 15 mg/kg)”. Besides, the “AD50 Tail-flick” value in experiment [3] is “IA (IA: AD50 > 15 mg/kg)”.

In the case of `CC1NC(C)(C)COC1(O)c1ccc(Cl)c(Cl)c1` (racemic) [Compound 4n, 2-(3,4-Dichlorophenyl)-3,5,5-trimethylmorpholin-2-ol], the “AD50 Hypothermia” value in experiment [1] is given as “IA (IA: AD50 > 15 mg/kg)”. For the same compound, in experiment [2], the IC50 came out at 0.07 µM and the “selectivity for inhibition of DA uptake over α4β2-nAChR” value was over 285 fold. The ED50 in experiment [3] is 8.8 mg/kg. The same compound had an IC50 in experiment [4] of 0.36 µM.

As for `C[C@@H]1NC(C)(C)CO[C@@]1(O)c1cc(F)cc(F)c1` [Compound 4o, (2S,3S)-2-(3,5-Difluorophenyl)-3,5,5-trimethylmorpholin-2-ol], the IC50 is 11 µM on α3β4*-nAChR, 1.02 ± 0.19 µM in experiment [2] (setting [5]) and over 10 µM in experiment [4] (setting [6]). Besides, in experiment [1], the “AD50 Hypothermia” value is on record as “IA (IA: AD50 > 15 mg/kg)”. In addition, the ED50 in experiment [3] was found to be 0.0056 mg/kg. Further, the “AD50 Tail-flick” value in experiment [3] was about 0.006 mg/kg.

Take `CC[C@@H]1NC(C)(C)CO[C@@]1(O)c1cccc(Cl)c1` [Compound 4s, (2S,3S)-2-(3-Chlorophenyl)-3-ethyl-5,5-dimethylmorpholin-2-ol]: the results for the IC50 (at α3β4*-nAChR; in experiment [2] (setting [5]); in experiment [4] (read-out: monoamine uptake inhibition IC50 [3H]5HT)) were 4.3 µM, 0.204 ± 0.023 µM and 2.5 ± 0.54 µM, respectively. Further, in experiment [3], the ED50 was 0.004 mg/kg.
